The subject of one assay is KM12 cells. Nature of the assay: Cell viability assay (CellTiter-Glo) in KM12 cells. Format: cell-based. As to conditions: Homo sapiens, 72 h; Table 2; KM12 cell viability, CellTiter-Glo, 3 days; read-out: IC50.
The IC50 is the point on the concentration scale where inhibition reaches its midpoint. `O=C(CN1CCN(c2ccc(C(=O)Nc3n[nH]c4ccc(Cc5cc(F)cc(F)c5)cc34)c(NC3CCOCC3)c2)CC1)NCCOCCOCCOCCNc1cccc2c1C(=O)N(C1CCC(=O)NC1=O)C2=O` (stereo not drawn) [CPD-064, N-(5-(3,5-difluorobenzyl)-1H-indazol-3-yl)-4-(4-(14-((2-(2,6-dioxopiperidin-3-yl)-1,3-dioxoisoindolin-4-yl)amino)-2-oxo-6,9,12-trioxa-3-azatetradecyl)piperazin-1-yl)-2-((tetrahydro-2H-pyran-4-yl)amino)benzamide]: the IC50 was 14.9 nM. For the molecule `Cc1ncsc1-c1ccc(CNC(=O)[C@@H]2C[C@@H](O)CN2C(=O)[C@@H](NC(=O)COCC(=O)N2CCN(c3ccc(C(=O)Nc4n[nH]c5ccc(Cc6cc(F)cc(F)c6)cc45)c(NC4CCOCC4)c3)CC2)C(C)(C)C)cc1` [CPD-045, (2S,4R)-1-((S)-2-(2-(2-(4-(4-((5-(3,5-Difluorobenzyl)-1H-indazol-3-yl)carbamoyl)-3-((tetrahydro-2H-pyran-4-yl)amino)phenyl)piperazin-1-yl)-2-oxoethoxy)acetamido)-3,3-dimethylbutanoyl)-4-hydroxy-N-(4-(4-methylthiazol-5-yl)benzyl)pyrrolidine-2-carboxamide], the half-inhibitory concentration (IC50) is greater than 1000 nM.

The assay is the same for the next values; noted with them: Homo sapiens, 72 h; Table 3; KM12 cell viability, CellTiter-Glo, 3 days; read-out: IC50.
Consider `O=C1CCC(N2C(=O)c3ccc(NCCCOCCN4CCN(c5cccc(-c6cnc7ccc(N8CCC[C@@H]8c8cccc(F)c8)nn67)n5)CC4)cc3C2=O)C(=O)N1` (stereo partly drawn) [TR-199], for which the IC50 amounted to 39.8 nM.

As for `O=C1CCC(N2C(=O)c3ccc(NCCOCCOCCOCCOCCC(=O)N4CCN(c5ccc(C(=O)Nc6n[nH]c7ccc(Cc8cc(F)cc(F)c8)cc67)c(NC6CCOCC6)c5)CC4)cc3C2=O)C(=O)N1` (stereo not drawn) [TR-140, N-(5-(3,5-Difluorobenzyl)-1H-indazol-3-yl)-4-(4-(1-((2-(2,6-dioxopiperidin-3-yl)-1,3-dioxoisoindolin-5-yl)amino)-3,6,9,12-tetraoxapentadecan-15-oyl)piperazin-1-yl)-2-((tetrahydro-2H-pyran-4-yl)amino)benzamide], the IC50 stood at 1.6 nM. Turning to `O=C1CCC(N2C(=O)c3ccc(/C=C/C(=O)N4CCN(c5cccc(-c6cnc7ccc(N8CCC[C@@H]8c8cccc(F)c8)nn67)n5)CC4)cc3C2=O)C(=O)N1` (stereo partly drawn) [TR-195, 2-(2,6-Dioxopiperidin-3-yl)-5-((E)-3-(4-(6-(6-((R)-2-(3-fluorophenyl)pyrrolidin-1-yl)imidazo[1,2-b]pyridazin-3-yl)pyridin-2-yl)piperazin-1-yl)-3-oxoprop-1-en-1-yl)isoindoline-1,3-dione], the IC50 was found to be 23.6 nM.

For `O=C(CN1CCN(c2cccc(-c3cnc4ccc(N5CCC[C@@H]5c5cccc(F)c5)nn34)n2)CC1)NCCCCCNc1cccc2c1C(=O)N(C1CCC(=O)NC1=O)C2=O` (stereo partly drawn) [TR-103, N-(5-((2-(2,6-dioxopiperidin-3-yl)-1,3-dioxoisoindolin-4-yl)amino)pentyl)-2-(4-(6-(6-((R)-2-(3-fluorophenyl)pyrrolidin-1-yl)imidazo[1,2-b]pyridazin-3-yl)pyridin-2-yl)piperazin-1-yl)acetamide], the half-maximal inhibitory concentration (IC50) amounted to 13.5 nM. Take `O=C1CCC(N2C(=O)c3ccc(N4CCC(N5CCN(c6cccc(-c7cnc8ccc(N9CCC[C@@H]9c9cccc(F)c9)nn78)n6)CC5)CC4)cc3C2=O)C(=O)N1` (stereo partly drawn) [TR-182, 2-(2,6-Dioxopiperidin-3-yl)-5-(4-(4-(6-(6-((R)-2-(3-fluorophenyl)pyrrolidin-1-yl)imidazo[1,2-b]pyridazin-3-yl)pyridin-2-yl)piperazin-1-yl)piperidin-1-yl)isoindoline-1,3-dione]: the IC50 worked out at 16 nM. In the case of `O=C(CN1CCN(c2cccc(-c3cnc4ccc(N5CCC[C@@H]5c5cccc(F)c5)nn34)n2)CC1)NCCCCCNc1ccc2c(c1)C(=O)N(C1CCC(=O)NC1=O)C2=O` (stereo partly drawn) [TR-131, N-(5-((2-(2,6-dioxopiperidin-3-yl)-1,3-dioxoisoindolin-5-yl)amino)pentyl)-2-(4-(6-(6-((R)-2-(3-fluorophenyl)pyrrolidin-1-yl)imidazo[1,2-b]pyridazin-3-yl)pyridin-2-yl)piperazin-1-yl)acetamide], the IC50 was determined as 2.7 nM. `O=C1CCC(N2Cc3cc(CCCN4CCN(c5cccc(-c6cnc7ccc(N8CCC[C@@H]8c8cccc(F)c8)nn67)n5)CC4)ccc3C2=O)C(=O)N1` (stereo partly drawn) [TR-186, 3-(5-(3-(4-(6-(6-((R)-2-(3-fluorophenyl)pyrrolidin-1-yl)imidazo[1,2-b]pyridazin-3-yl)pyridin-2-yl)piperazin-1-yl)propyl)-1-oxoisoindolin-2-yl)piperidine-2,6-dione]: the IC50 was 5.8 nM. For `O=C1CCC(N2Cc3ccc(NCC(=O)N4CCN(c5cccc(-c6cnc7ccc(N8CCC[C@@H]8c8cccc(F)c8)nn67)n5)CC4)cc3C2=O)C(=O)N1` (stereo partly drawn) [TR-189, 3-(6-((2-(4-(6-(6-((R)-2-(3-fluorophenyl)pyrrolidin-1-yl)imidazo[1,2-b]pyridazin-3-yl)pyridin-2-yl)piperazin-1-yl)-2-oxoethyl)amino)-1-oxoisoindolin-2-yl)piperidine-2,6-dione], the IC50 is 2.5 nM. Still for that read-out and setting: next, `O=C1CCC(N2C(=O)c3ccc(N4CC(N5CCN(c6cccc(-c7cnc8ccc(N9CCC[C@@H]9c9cccc(F)c9)nn78)n6)CC5)C4)cc3C2=O)C(=O)N1` (stereo partly drawn) [TR-184, 2-(2,6-dioxopiperidin-3-yl)-5-(3-(4-(6-(6-((R)-2-(3-fluorophenyl)pyrrolidin-1-yl)imidazo[1,2-b]pyridazin-3-yl)pyridin-2-yl)piperazin-1-yl)azetidin-1-yl)isoindoline-1,3-dione]: 9.3 nM; `O=C(CN1CCN(c2cccc(-c3cnc4ccc(N5CCC[C@@H]5c5cccc(F)c5)nn34)n2)CC1)NCCOCCOCCOCCOCCOCCNc1ccc2c(c1)C(=O)N(C1CCC(=O)NC1=O)C2=O` (stereo partly drawn) [TR-132, N-(17-((2-(2,6-dioxopiperidin-3-yl)-1,3-dioxoisoindolin-5-yl)amino)-3,6,9,12,15-pentaoxaheptadecyl)-2-(4-(6-(6-((R)-2-(3-fluorophenyl)pyrrolidin-1-yl)imidazo[1,2-b]pyridazin-3-yl)pyridin-2-yl)piperazin-1-yl)acetamide]: 4.4 nM; `O=C(CN1CCN(c2cccc(-c3cnc4ccc(N5CCC[C@@H]5c5cccc(F)c5)nn34)n2)CC1)NCCCCCCCCNc1cccc2c1C(=O)N(C1CCC(=O)NC1=O)C2=O` (stereo partly drawn) [TR-102, N-(8-((2-(2,6-dioxopiperidin-3-yl)-1,3-dioxoisoindolin-4-yl)amino)octyl)-2-(4-(6-(6-((R)-2-(3-fluorophenyl)pyrrolidin-1-yl)imidazo[1,2-b]pyridazin-3-yl)pyridin-2-yl)piperazin-1-yl)acetamide]: 44.4 nM. In the case of `CN1CCN(c2ccc(C(=O)Nc3n[nH]c4ccc(Cc5cc(F)cc(F)c5)cc34)c(NC3CCOCC3)c2)CC1` [Entrectinib, entrectinib, reference compound], the IC50 is 4.3 nM. With `O=C1CCC(N2C(=O)c3ccc(NCCOCCOCCOCCC(=O)N4CCN(c5cccc(-c6cnc7ccc(N8CCC[C@@H]8c8cccc(F)c8)nn67)n5)CC4)cc3C2=O)C(=O)N1` (stereo partly drawn) [TR-114, 2-(2,6-Dioxopiperidin-3-yl)-5-((2-(2-(2-(3-(4-(6-(6-((R)-2-(3-fluorophenyl)pyrrolidin-1-yl)imidazo[1,2-b]pyridazin-3-yl)pyridin-2-yl)piperazin-1-yl)-3-oxopropoxy)ethoxy)ethoxy)ethyl)amino)isoindoline-1,3-dione], the IC50 stood at 16.9 nM.

Consider `O=C(CN1CCN(c2ccc(C(=O)Nc3n[nH]c4ccc(Cc5cc(F)cc(F)c5)cc34)c(NC3CCOCC3)c2)CC1)NCCOCCNc1cccc2c1C(=O)N(C1CCC(=O)NC1=O)C2=O` (stereo not drawn) [TR-151, N-(5-(3,5-Difluorobenzyl)-1H-indazol-3-yl)-4-(4-(2-((2-(2-((2-(2,6-dioxopiperidin-3-yl)-1,3-dioxoisoindolin-4-yl)amino)ethoxy)ethyl)amino)-2-oxoethyl)piperazin-1-yl)-2-((tetrahydro-2H-pyran-4-yl)amino)benzamide], for which the half-inhibitory concentration (IC50) was found to be 3.1 nM. Consider `O=C1CCC(N2C(=O)c3ccc(NCCCCC(=O)N4CCN(c5ccc(C(=O)Nc6n[nH]c7ccc(Cc8cc(F)cc(F)c8)cc67)c(NC6CCOCC6)c5)CC4)cc3C2=O)C(=O)N1` (stereo not drawn) [TR-142, N-(5-(3,5-Difluorobenzyl)-1H-indazol-3-yl)-4-(4-(5-((2-(2,6-dioxopiperidin-3-yl)-1,3-dioxoisoindolin-5-yl)amino)pentanoyl)piperazin-1-yl)-2-((tetrahydro-2H-pyran-4-yl)amino)benzamide], for which the IC50 was 3.4 nM.

Staying with this assay, now noted: Homo sapiens, 72 h; Table 4; KM12 cell viability, CellTiter-Glo, 3 days; read-out: IC50.
On to `O=C1CCC(N2C[C@H](c3ccc(C#CCN4CCN(c5cccc(-c6cnc7ccc(N8CCC[C@@H]8c8cccc(F)c8)nn67)n5)CC4)cc3)OC2=O)C(=O)N1` (stereo partly drawn) [TR-224, 3-((S)-5-(4-(3-(4-(6-(6-((R)-2-(3-Fluorophenyl)pyrrolidin-1-yl)imidazo[1,2-b]pyridazin-3-yl)pyridin-2-yl)piperazin-1-yl)prop-1-yn-1-yl)phenyl)-2-oxooxazolidin-3-yl)piperidine-2,6-dione], for which the IC50 stood at 9.9 nM. With `COc1ccc(CN(CCN2CCN(c3cccc(-c4cnc5ccc(N6CCC[C@@H]6c6cccc(F)c6)nn45)n3)CC2)c2ccc3c(c2)C(=O)N(C2CCC(=O)NC2=O)C3=O)cc1` (stereo partly drawn) [TR-214, 2-(2,6-Dioxo-3-piperidyl)-5-(2-(4-(6-(6-((2R)-2-(3-fluorophenyl)pyrrolidin-1-yl)imidazo[1,2-b]pyridazin-3-yl)-2-pyridyl)piperazin-1-yl)ethyl-((4-methoxyphenyl)methyl)amino)isoindoline-1,3-dione], the IC50 is 2.7 nM. The same measure, in the same setting: next, `O=C1CCC(N2Cc3cc(C#CC4CN(c5cccc(-c6cnc7ccc(N8CCC[C@@H]8c8cccc(F)c8)nn67)n5)C4)ccc3C2=O)C(=O)N1` (stereo partly drawn) [TR-219, 3-(5-((1-(6-(6-((R)-2-(3-Fluorophenyl)pyrrolidin-1-yl)imidazo[1,2-b]pyridazin-3-yl)pyridin-2-yl)azetidin-3-yl)ethynyl)-1-oxoisoindolin-2-yl)piperidine-2,6-dione]: 44.9 nM; `O=C1CCC(n2c(=O)n(CCN3CCN(c4cccc(-c5cnc6ccc(N7CCC[C@@H]7c7cccc(F)c7)cn56)n4)CC3)c3ccccc32)C(=O)N1` (stereo partly drawn) [TR-242, 3-(3-(2-(4-(6-(6-((R)-2-(3-fluorophenyl)pyrrolidin-1-yl)imidazo[1,2-a]pyridin-3-yl)pyridin-2-yl)piperazin-1-yl)ethyl)-2-oxo-2,3-dihydro-1H-benzo[d]imidazol-1-yl)piperidine-2,6-dione]: greater than 500 nM.

The values are drawn from patent US12065442B2, “Tropomyosin receptor kinase (TRK) degradation compounds and methods of use” (Cullgen (Shanghai), Inc., priority 2018, dated 2024).
